Active and inactive are the calls of the source. The calls are words filed in the database; no cut-off is given here.
Experiments:
Plasmodium falciparum [1] = experiment: Antimalarial activity against […] infected in human RBC assessed as inhibition of plasmodial growth at 1 uM by SYBR green dye based spectrofluorometric analysis relative to control; type: functional; details: 3D7, Erythrocyte
Plasmodium falciparum [2] = experiment: Antimalarial activity against […] infected in human RBC assessed as inhibition of plasmodial growth at 10 uM by SYBR green dye based spectrofluorometric analysis relative to control; type: functional; details: 3D7, Erythrocyte
Plasmodium falciparum [3] = experiment: Synergistic antimalarial activity against synchronized ring stage Plasmodium falciparum 3D7 infected in human RBC assessed as mean fractional inhibitory concentration at 2:3 ratio of ART to compound incubated for 72 hrs by giemsa staining based flow cytometric analysis; type: functional
Plasmodium berghei [4] = experiment: Antimalarial activity against Plasmodium berghei ANKA in BALB/c mouse injected with parasite infected erythrocytes assessed as decrease in parasite load at 30 mg/kg, ip administered daily for 7 days relative to control; type: functional; set-up: scale not given: the % may be the effect or the level left; details: time 7 day
[5] = Binding affinity to recombinant N-terminal 6His tagged Plasmodium falciparum alpha-1 tubulin expressed in Escherichia coli BL21 assessed as dissociation constant by SPR analysis
[6] = Therapeutic index, ratio of CC50 for human HepG2 cells to IC50 for chloroquine-sensitive synchronized late stage trophozoite Plasmodium falciparum 3D7 infected in human RBC; type: toxicity; details: read-out: TI
Plasmodium falciparum [7] = experiment: Binding affinity to recombinant N-terminal 6His tagged Plasmodium falciparum beta-tubulin expressed in Escherichia coli BL21 at 0.78 to 75 uM by SPR analysis; details: dose 0.78-75 µM
Plasmodium falciparum [8] = experiment: Antimalarial activity against chloroquine-resistant Plasmodium falciparum RKL-9 infected in human RBC assessed as reduction of plasmodial growth by SYBR green dye based spectrofluorometric analysis; type: functional, organism-based
Plasmodium falciparum [9] = experiment: Induction of mitochondrial membrane depolarization in trophozoite stage Plasmodium falciparum 3D7 infected in human RBC assessed as increase in green fluorescence at IC50 concentration incubated for 3 hrs by JC-1 dye based fluorescence microscopic analysis; type: functional, organism-based
Plasmodium falciparum [10] = experiment: Synergistic antimalarial activity against synchronized ring stage Plasmodium falciparum 3D7 infected in human RBC assessed as mean fractional inhibitory concentration at 1:4 ratio of ART to compound incubated for 72 hrs by giemsa staining based flow cytometric analysis; type: functional
Erythrocyte = experiment: Hemolytic activity in human RBC assessed as hemolysis upto 5 uM incubated for 2 hrs; type: toxicity, cell-based
Plasmodium falciparum [11] = experiment: Induction of mitochondrial membrane depolarization in trophozoite stage Plasmodium falciparum 3D7 infected in human RBC assessed as decrease in red to green fluorescence ratio at IC50 concentration incubated for 3 hrs by JC-1 dye based fluorescence microscopic analysis; type: functional, organism-based
Plasmodium falciparum [12] = experiment: Binding affinity to recombinant N-terminal 6His tagged Plasmodium falciparum alpha-1 tubulin expressed in Escherichia coli BL21 assessed as thermo-stabilization incubated at 4 to 80 degreeC for 3 mins followed by 5 mins incubation at room temperature by thermal shift assay; details: time 8.0 min
Plasmodium falciparum [13] = experiment: Antimalarial activity against chloroquine-resistant synchronized late stage trophozoite Plasmodium falciparum RKL-9 infected in human RBC assessed as inhibition of plasmodial growth by giemsa staining based analysis; type: functional, organism-based; details: RKL-9, Erythrocyte
Plasmodium berghei [14] = experiment: Antimalarial activity against Plasmodium berghei ANKA in BALB/c mouse injected with parasite infected erythrocytes assessed as […] mean survival time at 30 mg/kg, ip administered daily for 7 days and measured after 15 days; type: functional; details: time 15 day
[15] = Cytotoxicity against human HepG2 cells; type: toxicity, cell-based
Plasmodium falciparum [16] = experiment: Induction of mitochondrial membrane depolarization in trophozoite stage Plasmodium falciparum 3D7 infected in human RBC assessed as red to green fluorescence ratio at IC50 concentration incubated for 3 hrs by JC-1 dye based spectrofluorometric analysis (reference value: 6.96+/-0.94); type: functional
Plasmodium berghei [17] = experiment: Antimalarial activity against Plasmodium berghei ANKA in BALB/c mouse injected with parasite infected erythrocytes assessed as reduction in parasitemia at 30 mg/kg, ip administered daily for 7 days and measured after 15 days; type: functional, organism-based; details: time 15.0 day
[18] = Cytotoxicity against […] cell upto 500 uM; type: toxicity, cell-based; details: human
Plasmodium falciparum [19] = experiment: Antiplasmodial activity against synchronized ring stage Plasmodium falciparum 3D7 infected in human RBC assessed as defect in invasion stage by measuring merozoites sticking on the red blood cell surface at IC50 concentration measured after 60 hrs by giemsa staining based light microscopic analysis; type: functional, organism-based
Plasmodium falciparum [20] = experiment: Antimalarial activity against chloroquine-sensitive synchronized late stage trophozoite Plasmodium falciparum 3D7 infected in human RBC assessed as inhibition of plasmodial growth by giemsa staining based analysis; type: functional, organism-based; details: 3D7, Erythrocyte
Plasmodium falciparum [21] = experiment: Antiplasmodial activity against synchronized ring stage Plasmodium falciparum 3D7 infected in human RBC assessed as reduction in parasitemia percentage by measuring defect in egress stage at IC50 concentration measured after 60 hrs by giemsa staining based light microscopic analysis; type: functional, organism-based
Plasmodium falciparum [22] = experiment: Binding affinity to recombinant N-terminal 6His tagged Plasmodium falciparum alpha-1 tubulin expressed in Escherichia coli BL21 assessed as dissociation constant at 0.78 to 75 uM by SPR analysis; details: dose 0.78-75 µM
Plasmodium falciparum [23] = experiment: Antiplasmodial activity against Plasmodium falciparum 3D7; type: functional, organism-based
Plasmodium falciparum [24] = experiment: Antiplasmodial activity against synchronized ring stage Plasmodium falciparum 3D7 infected in human RBC assessed as reduction in parasitemia percentage by measuring defect in invasion stage at IC50 concentration measured after 60 hrs by giemsa staining based light microscopic analysis; type: functional, organism-based
Plasmodium falciparum [25] = experiment: Antiplasmodial activity against […] incubated for 90 hrs by SYBR green I dye based analysis; type: functional, organism-based; details: 3D7, 90 h
[26] = Cytotoxicity against human U-937 cells assessed as reduction in cell viability incubated for 24 hrs by MTT assay; type: toxicity, cell-based
Plasmodium falciparum [27] = experiment: Antiplasmodial activity against synchronized ring stage Plasmodium falciparum 3D7 infected in human RBC assessed as failure of egress by measuring accumulation at late schizont stage at IC50 concentration measured after 60 hrs by giemsa staining based light microscopic analysis; type: functional, organism-based
[28] = Therapeutic index, ratio of cytotoxicity against […] cells to IC50 for chloroquine-sensitive synchronized late stage trophozoite Plasmodium falciparum 3D7 infected in human RBC; type: toxicity, cell-based; details: read-out: TI
[29] = Cytotoxicity against human U-937 cells; type: toxicity, cell-based

SMILES: CCC(C)[C@H](c1nc2ccccc2n1Cc1cn(-c2c(F)c(F)c(F)c(F)c2F)nn1)N1C(=O)c2ccccc2C1=O (some centres undefined)
- inhibition at 1 µM (Plasmodium falciparum [1]): -44%
- inhibition at 10 µM (Plasmodium falciparum [2]): 77%

SMILES: CCC(C)[C@H](c1nc2ccccc2n1Cc1cn(-c2ccc(F)cc2F)nn1)N1C(=O)c2ccc(C)cc2C1=O (some centres undefined)
- inhibition at 1 µM (Plasmodium falciparum [1]): 21%
- inhibition at 10 µM (Plasmodium falciparum [2]): 94%

SMILES: CCC(C)[C@H](c1nc2ccccc2n1Cc1cn(-c2ccc(C(F)(F)F)cc2)nn1)N1C(=O)c2ccccc2C1=O (some centres undefined)
- inhibition at 1 µM (Plasmodium falciparum [1]): 45%
- FIC (Plasmodium falciparum [3]): 0.86
- Activity (Plasmodium berghei [4]): 2.1%
- Kd [5]: 26400 nM
- selectivity ratio [6]: 156
- Activity (Plasmodium falciparum [7]): inactive
- Activity (Plasmodium falciparum [8]): Dose dependent effect
- Activity (Plasmodium falciparum [9]): Active
- inhibition at 10 µM (Plasmodium falciparum [2]): 68%
- FIC (Plasmodium falciparum [10]): 0.67
- Activity (Erythrocyte): Non-Toxic
- Activity (Plasmodium falciparum [11]): Active
- Activity (Plasmodium falciparum [12]): Active
- IC50 (Plasmodium falciparum [13]): 1620 nM
- MST (Plasmodium berghei [14]): 11.42 days
- IC50 [15]: > 100000 nM
- Activity (Plasmodium falciparum [16]): 4.61
- Activity (Plasmodium berghei [17]): Active
- Activity [18]: Non-Toxic
- Activity (Plasmodium falciparum [19]): Active
- IC50 (Plasmodium falciparum [20]): 640 nM

SMILES: CC(C)[C@H](c1nc2ccccc2n1Cc1cn(-c2ccc(F)cc2F)nn1)N1C(=O)c2ccccc2C1=O
- inhibition at 1 µM (Plasmodium falciparum [1]): -12%
- inhibition at 10 µM (Plasmodium falciparum [2]): 88%

SMILES: Cc1ccc2c(c1)C(=O)N([C@H](CC(C)C)c1nc3ccccc3n1Cc1cn(-c3ccc(Cl)cc3)nn1)C2=O
- Activity (Plasmodium falciparum [21]): Active
- inhibition at 1 µM (Plasmodium falciparum [1]): 43%
- FIC (Plasmodium falciparum [3]): 0.87
- Activity (Plasmodium berghei [4]): 3.6%
- selectivity ratio [6]: > 135
- Activity (Plasmodium falciparum [7]): inactive
- Activity (Plasmodium falciparum [8]): Dose dependent effect
- Activity (Plasmodium falciparum [9]): Active
- inhibition at 10 µM (Plasmodium falciparum [2]): 73%
- FIC (Plasmodium falciparum [10]): 0.98
- Activity (Erythrocyte): Non-Toxic
- Activity (Plasmodium falciparum [11]): Active
- Activity (Plasmodium falciparum [22]): inactive
- Activity (Plasmodium falciparum [12]): Active
- IC50 (Plasmodium falciparum [13]): 1710 nM
- MST (Plasmodium berghei [14]): 11.07 days
- IC50 [15]: > 100000 nM
- Activity (Plasmodium falciparum [16]): 4.62
- Activity (Plasmodium berghei [17]): Active
- Activity [18]: Non-Toxic
- IC50 (Plasmodium falciparum [23]): 640 nM
- Activity (Plasmodium falciparum [24]): Active
- IC50 (Plasmodium falciparum [20]): 740 nM

SMILES: CCC(C)[C@H](c1nc2ccccc2n1Cc1cn(-c2ccccc2F)nn1)N1C(=O)c2ccccc2C1=O (some centres undefined)
- inhibition at 1 µM (Plasmodium falciparum [1]): 8%
- inhibition at 10 µM (Plasmodium falciparum [2]): 87%

SMILES: CCC(C)C(c1nc2ccccc2n1Cc1c[nH]nn1)N1C(=O)c2ccccc2C1=O (centres undefined)
- IC50 (Plasmodium falciparum [25]): 700 nM
- CC50 at 24 h [26]: 2080 nM

SMILES: COc1ccc(-n2cc(Cn3c([C@@H](CC(C)C)N4C(=O)c5ccc(C)cc5C4=O)nc4ccccc43)nn2)cc1
- inhibition at 1 µM (Plasmodium falciparum [1]): -43%
- inhibition at 10 µM (Plasmodium falciparum [2]): 65%

SMILES: CCC(C)[C@H](c1nc2ccccc2n1Cc1cn(-c2ccc(F)cc2)nn1)N1C(=O)c2ccc(C)cc2C1=O (some centres undefined)
- inhibition at 1 µM (Plasmodium falciparum [1]): 20%
- selectivity ratio [6]: 46
- Activity (Plasmodium falciparum [7]): inactive
- Activity (Plasmodium falciparum [8]): Dose dependent effect
- Activity (Plasmodium falciparum [9]): Active
- Activity (Plasmodium falciparum [27]): Active
- selectivity ratio [28]: > 800
- inhibition at 10 µM (Plasmodium falciparum [2]): 64%
- Activity (Erythrocyte): Non-Toxic
- Activity (Plasmodium falciparum [11]): Active
- Activity (Plasmodium falciparum [22]): inactive
- Activity (Plasmodium falciparum [12]): Active
- IC50 (Plasmodium falciparum [13]): 3430 nM
- IC50 [15]: > 100000 nM
- Activity (Plasmodium falciparum [16]): 5.56
- Activity [18]: Non-Toxic
- IC50 (Plasmodium falciparum [20]): 2200 nM

SMILES: CCC(C)[C@H](c1nc2ccccc2n1Cc1cn(-c2ccc(F)cc2)nn1)N1C(=O)c2ccccc2C1=O (some centres undefined)
- CC50 [29]: 28800 nM
- IC50 (Plasmodium falciparum [23]): 900 nM

SMILES: CCC(C)[C@H](c1nc2ccccc2n1Cc1cn(-c2c(F)c(F)c(F)c(F)c2F)nn1)N1C(=O)c2ccc(C)cc2C1=O (some centres undefined)
- inhibition at 1 µM (Plasmodium falciparum [1]): -4%
- inhibition at 10 µM (Plasmodium falciparum [2]): 95%

SMILES: Cc1ccc2c(c1)C(=O)N([C@H](CC(C)C)c1nc3ccccc3n1Cc1cn(-c3ccc(C(F)(F)F)cc3)nn1)C2=O
- inhibition at 1 µM (Plasmodium falciparum [1]): 37%
- inhibition at 10 µM (Plasmodium falciparum [2]): 75%

From ChEMBL document CHEMBL5338711, “Designing and development of phthalimides as potent anti-tubulin hybrid molecules against malaria” (Eur J Med Chem, 2022)
